Tested on: 996289-038-R-J1-PDC spheroid viability
Experiment: Anticancer human tumor 996289-038-R-J1-PDC patient-derived colon adenocarcinoma cell line growth inhibition [PI3K]
Settings: spheroids with HUVEC and MSC; for IC50: curve of first compound; for viability, T/C: stronger effect = lower value; active = viability on the fitted dose curve at most 10% of control; inactive = the rest
In short: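 Viability of mixed-cell spheroids was determined after exposure to pairwise combinations, one partner being inavolisib, alpelisib, duvelisib or copanlisib. Highest tested concentration matched clinical Cmax where known and 10 microM where not, descending in half-log steps.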
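Note: spheroids exposed to compounds for seven days before viability read.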
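Throughout, for viability, T/C: luminescence used as a proxy for viable cell amount; percent viability relative to DMSO vehicle control as 100%.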

Cn1cnc2c(F)c(Nc3ccc(Br)cc3Cl)c(C(=O)NOCCO)cc21 + COc1c(OCCCN2CCOCC2)ccc2c3n(c(=NC(=O)c4cnc(N)nc4)nc12)CCN3
0.0496 µM: IC50 (second compound 0.0316 µM)
0.074 µM: IC50 (second compound 0.01 µM)
inactive: viability, T/C (second compound 0.00316 µM, first compound 0.00949 µM) 85.8% | viability, T/C (second compound 0.00316 µM, first compound 0.03 µM) 64.4% | viability, T/C (second compound 0.00316 µM, first compound 0.0949 µM) 62.2% | viability, T/C (second compound 0.00316 µM, first compound 0.3 µM) 38.7% | viability, T/C (second compound 0.00316 µM, first compound 0.949 µM) 28.2% | viability, T/C (second compound 0.00316 µM, first compound 3 µM) 20.1% | viability, T/C (second compound 0.01 µM, first compound 0.00949 µM) 79.3% | viability, T/C (second compound 0.01 µM, first compound 0.03 µM) 65.1% | viability, T/C (second compound 0.01 µM, first compound 0.0949 µM) 45.5% | viability, T/C (second compound 0.01 µM, first compound 0.3 µM) 29.7% | viability, T/C (second compound 0.01 µM, first compound 0.949 µM) 28.5% | viability, T/C (second compound 0.01 µM, first compound 3 µM) 16.8% | viability, T/C (second compound 0.0316 µM, first compound 0.00949 µM) 71.3% | viability, T/C (second compound 0.0316 µM, first compound 0.03 µM) 59.1% | viability, T/C (second compound 0.0316 µM, first compound 0.0949 µM) 38.2% | viability, T/C (second compound 0.0316 µM, first compound 0.3 µM) 28.8% | viability, T/C (second compound 0.0316 µM, first compound 0.949 µM) 19.2% | viability, T/C (second compound 0.0316 µM, first compound 3 µM) 12.5% | viability, T/C (second compound 0.1 µM, first compound 0.00949 µM) 54.1% | viability, T/C (second compound 0.1 µM, first compound 0.03 µM) 39.2% | viability, T/C (second compound 0.1 µM, first compound 0.0949 µM) 27.6% | viability, T/C (second compound 0.1 µM, first compound 0.3 µM) 18.6% | viability, T/C (second compound 0.1 µM, first compound 0.949 µM) 12.5% | viability, T/C (second compound 0.316 µM, first compound 0.00949 µM) 34.1% | viability, T/C (second compound 0.316 µM, first compound 0.03 µM) 24.5% | viability, T/C (second compound 0.316 µM, first compound 0.0949 µM) 15.1% | viability, T/C (second compound 0.316 µM, first compound 0.3 µM) 10.6% | viability, T/C (second compound 1 µM, first compound 0.00949 µM) 15.6% | viability, T/C (second compound 1 µM, first compound 0.03 µM) 14.3%
active: viability, T/C (second compound 0.1 µM, first compound 3 µM) 5.57% | viability, T/C (second compound 0.316 µM, first compound 0.949 µM) 6.3% | viability, T/C (second compound 0.316 µM, first compound 3 µM) 4.03% | viability, T/C (second compound 1 µM, first compound 0.0949 µM) 9.32% | viability, T/C (second compound 1 µM, first compound 0.3 µM) 5.03% | viability, T/C (second compound 1 µM, first compound 0.949 µM) 4.84% | viability, T/C (second compound 1 µM, first compound 3 µM) 2.93%
0.0127 µM: IC50 (second compound 0.1 µM)
< 0.00949 µM: IC50 (second compound 0.316 µM) | IC50 (second compound 1 µM)
0.147 µM: IC50 (second compound 0.00316 µM)
